From patent US20100184852A1, “ORGANIC COMPOUNDS FOR TREATMENT OF DISORDERS CONNECTED TO IMPAIRED NEUROTRANSMISSION” (priority 2006, published 2010)

Test system: mice
Test: Elevated plus maze test
Type: in vivo, mouse
Conditions: for OPEN ARM Number of entries, Mean ± sem / OPEN ARM Time spent (s), Mean ± sem: 5 h and 1 h before test; for OPEN ARM Number of entries, % change / OPEN ARM Time spent, % change: versus vehicle
Excerpt: The method, which detects anxiolytic activity, follows that described by Handley et al, 1984 (Naunyn-Schm Arch Pharm 387: 1-5. Rodents avoid open spaces (the open arms of an elevated plus-maze). Anxiolytics increase exploratory activity in the […].
The maze consists of 4 arms of equal length and width (14×5 cm) arranged in the form of a plus sign (+). Two opposite arms are enclosed by 12 cm high walls (closed arms). The 2 other arms have no walls (open arms). The maze is raised 56 cm above the floor. A mouse is placed in the centre of the plus-maze and left to explore for 5 minutes. The number of entries into the open and closed arms and the time spent in the open arms is recorded. 10 mice were studied per group. The test was performed blind.
3-n-Butylphthalide was tested at doses of 10, 30, and 80 mg/kg body weight.

For `CCCC[C@@H]1OC(=O)c2ccccc21` (stereo in doubt) [3-n-butylphthalide, 3-n-Butylphthalide], the “OPEN ARM Number of entries, Mean ± sem” value (10 mg/kg p.o. −24 h) was 3.5 ± 0.7, the “OPEN ARM Time spent (s), Mean ± sem” value (10 mg/kg p.o. −24 h) was 24.3 ± 4.6 s and the “OPEN ARM Number of entries, % change” value (10 mg/kg p.o.) was “+46%”. The “OPEN ARM Time spent, % change” value (10 mg/kg p.o.) was “+34%”, the “OPEN ARM Number of entries, Mean ± sem” value (30 mg/kg p.o. −24 h) was 3.1 ± 0.5 and the “OPEN ARM Time spent (s), Mean ± sem” value (30 mg/kg p.o. −24 h) was 23.0 ± 3.8 s. For the same compound, the “OPEN ARM Number of entries, % change” value (30 mg/kg p.o.) was “+29%”, the “OPEN ARM Time spent, % change” value (30 mg/kg p.o.) was “+26%” and the “OPEN ARM Number of entries, Mean ± sem” value (80 mg/kg p.o. −24 h) was 3.0 ± 0.8. For the same compound, the “OPEN ARM Time spent (s), Mean ± sem” value (80 mg/kg p.o. −24 h) was 26.4 ± 5.3 s, the “OPEN ARM Number of entries, % change” value (80 mg/kg p.o.) was “+25%” and the “OPEN ARM Time spent, % change” value (80 mg/kg p.o.) was “+45%”. The anxiolytic activity (10, 30 and 80 mg/kg) was “moderate anxiolytic activity”, the “entries into the closed arm” value (10, 30 and 80 mg/kg) was “no effect” and the “number of entries and time spent in the open arm (overall)” value (10, 30 and 80 mg/kg) was “trend to moderately increase”.
